Measurements reported in patent publication US20030125287A1, “Antisense oligonucleotides and methods to induce tumor cell death” (Hybridon, Inc., priority 2001, published 2003).
“Also recorded” adds a separate entry of the source. Oligonucleotides are written 5' to 3', each unit as a sugar letter and its base; * is a phosphorothioate linkage, no mark a phosphodiester; rarer units and linkages stand in square brackets, end groups in braces. Plain capitals give the bases only. d = 2'-deoxy (DNA)

How the values were obtained:
Format in all cases: cell-based, human
MSN cells = experiment: Trypan blue assay (cell death) in MSN cells; settings: for percentage of cells Trypan blue positive: MSN cells
Procedure: The role of survivin as an inhibitor of apoptosis and as a survival protein for tumors was investigated by examining whether the down-regulation of survivin was sufficient to induce cell death in MSN cells. Following transfection with lipofectin, different concentrations of survivin antisense oligonucleotide 904 (200 nM, 400 nM, 600 nM), or the mismatched oligonucleotide 1132 (400 nM and 600 nM), the number of Trypan blue positive cells (only dead cells are stained by the Trypan blue stain) were counted 48 hours after treatment. The number of dead cells was assessed relative to the lipofectin-treated control cells. In the presence of 200 nM, 400 nM, and 600 nM concentrations of antisense oligonucleotide 904, the percentage of cells that were Trypan blue positive were 52%, 59% and 62%, respectively (FIG. 4A). The mismatched oligonucleotide 1132 (400 nM and 600 nM) was similar to the lipofectin control treatment, wherein 23% (400 nM) and 22% (600 nM) of the cells were Trypan blue-positive. About 6% of the cells in the untreated control were Trypan blue positive.
In another experiment, following transfection with lipofectin, mismatched oligonucleotide 1132 (600 nM), or survivin antisense oligonucleotide 904 or 906 (600 nM), the numbers of Trypan blue positive cells (dead cells) were counted 48 h post-treatment. In the presence of 600 nM survivin antisense oligonucleotide 904 and 906, the percentages of cells that were Trypan blue positive were 73% and 81%, respectively (FIG. 4B). Upon treatment with lipofectin or the mismatched oligonucleotide 1132, only 7-11% of the cells were Trypan blue positive.
Further experiments were conducted to examine whether survivin antisense oligonucleotide-induced cell death could be blocked by the broad-spectrum caspase inhibitor zVAD-fmk. MSN cells were treated with lipofectin or 600 nM survivin antisense oligonucleotide 904, 906, or mismatch oligonucleotide 1132 alone, or co-treated with 20 μM zVAD-fmk for 48 h, and stained with 0.04% Trypan blue.
(§1) Cells were harvested 48 hours after survivin antisense treatment, stained with 0.04% Trypan blue (GIBCO), and counted on a hemocytometer. The number of Trypan blue positive cells relative to the total number of cells in each field was obtained and the data were expressed as a percentage of dead cells relative to the total cell number. Individual experiments were performed in triplicate. MSN cell studies were performed three times, while studies in TC620 cells were performed once.

caspase-3 = experiment: Caspase-3 activity assay in MSN cells; settings: MSN cells, 400 nM, 48 hours; for caspase-3 activity, Relative units/mg protein +/− SD: triplicate
Procedure: MSN cells were treated with lipofectin, 400 nM survivin antisense oligonucleotide 903, 904, or mismatched oligonucleotide 1132, for a 48 hour period. Cell pellets were washed twice in cold PBS and re-suspended in ice-cold hypotonic cell lysis buffer (25 mM HEPES, pH 7.5, 5 mM MgCl2, 5 mM EDTA, 5 mM DTT, 2 mM PMSF, 10 μg/ml pepstatin A, 10 μg/ml leupeptin). Re-suspended pellets were incubated on ice for 20 min, followed by brief sonication for two seconds. Lysates were centrifuged at 14,000 rpm for 20 minutes at 4° C. The supernatant was retained and the protein concentration analyzed by the Bio-Rad protein assay described above.
Supernatants were assayed in triplicate, with and without the caspase-3 inhibitor, Ac-DEVD-CHO, using black opaque, 96 well, flat bottom plates (Greiner Laboratories, USA Scientific Inc., Orlando, Fla.). 50-100 μg of the supernatant was incubated in caspase-3 assay buffer (100 mM HEPES, pH 7.5, 10% sucrose, 0.1% CHAPS and 10 mM DTT) with either 2 μl of DMSO or 2 μl of 2.5 mM Ac-DEVD-CHO (Pharmingen, San Diego, Calif.) so that the final concentration of the inhibitor was 50 μM in a final volume of 100 μl. It was then incubated at 30° C. for 30 minutes. Subsequently, 2 μl of the caspase-3 substrate 2.5 mM Ac-DEVD-AMC (Pharmingen, San Diego, Calif.) (final concentration 50 μM)) was added to each well. Plates were incubated at 30° ° C. for 60 minutes in the dark.
Fluorescence of the reaction was measured using a SPECTRAmax GEMINI spectrofluorometer using SOFTmax® PRO software (Molecular Devices, Sunnyvale, Calif.) at an excitation wavelength of 355 nm and an emission wavelength of 460 nm with a cutoff filter of 455 nm. The data is presented as the ratio of the mean relative fluorescence units/mg protein±SD.

[1] = test system: apoptosis-inducing factor (AIF); experiment: AIF immunostaining and DAPI double-labeling of MSN cells; settings: for AIF localization: 600 nM (FIGS. 9H-9K)
Procedure: To examine whether down-regulation of survivin induces AIF nuclear translocation, AIF and DAPI double-labeling was performed on MSN cells treated with lipofectin (FIG. 9H), or 600 nM survivin antisense oligonucleotide 904 (FIG. 9I), mismatch oligonucleotide 1132 (FIG. 9J), or survivin antisense oligonucleotide 906 (FIG. 9K).
Lipofectin, mismatch oligonucleotide 1132 or survivin antisense oligonucleotide-treated MSN cells were fixed and permeabilized as described for PI staining, and blocked for 1 h at room temperature with 10% normal goat serum in 5% non-fat, dry milk in 1×TBS. […] Omission of the primary antibody confirmed that the immunostaining was specific. Cells were counterstained with the DNA-specific dye DAPI (1:1000 of a 1 mg/ml stock; 15 min at room temperature). Cells were examined with an Olympus 1×70 inverted microscope. Fluorescent images were collected using a 12-bit Photometrics cooled CCD camera. For each treatment, 15 random, 40×objective fields consisting of about 600 cells were examined. TRITC (red) and DAPI (blue) stained cells were scored as having AIF staining either in the mitochondria or the nucleus relative to the total number examined. In parallel, the DAPI stained nuclei were also scored as normal, condensed, or abnormal nuclei. Experiments were performed in duplicate.

TC620 cells = experiment: Trypan blue assay (cell death) in TC620 cells
Procedure: At 100 nM, 200 nM, and 400 nM, the percentage of dead cells was 28%, 36%, and 62%, respectively. The percentages of Trypan blue-positive cells treated with 200 nM (8%) and 400 nM (7.5%) mismatched oligonucleotide 1132 were similar to the lipofectin control (6%). Cells were treated with lipofectin, survivin antisense oligonucleotide 904 at 100, 200, or 400 nM, or mismatched oligonucleotide 1132 at 200 nM or 400 nM concentrations. Cells were harvested 48 hours after the treatment and stained with 0.04% Trypan blue as described for FIG. 4.
To further examine whether cell death induced by treatment of TC620 cells with survivin antisense oligonucleotides occurs via a caspase-dependent mechanism, another experiment was performed to investigate the effect of a caspase inhibitor on cell death. […] TC620 cells were treated with lipofectin or 600 nM survivin antisense oligonucleotide 904, 906, or mismatch oligonucleotide 1132 alone, or co-treated with 20 μM zVAD-fmk.
as §1

[2] = 600 nM co-treated with 20 μM zVAD-fmk, 48 h (FIG. 4B)
[3] = 600 nM co-treated with 20 μM zVAD-fmk (FIG. 6B)

Substance | percentage of cells Trypan blue positive (MSN cells; 400 nM, 48 hours (FIG. 4A)) [%] | percentage of cells Trypan blue positive (MSN cells; 600 nM alone, 48 h (FIG. 4B)) | percentage of cells Trypan blue positive (MSN cells; 600 nM, 48 hours (FIG. 4A)) [%] | caspase-3 activity (caspase-3) | caspase-3 activity, Relative units/mg protein +/− SD (caspase-3) | percentage of cells with normal-appearing nuclei by DAPI staining ([1]; 600 nM) [%] | percentage of cells with nuclear localization / translocation of AIF ([1]; 600 nM) | AIF localization [1] | percentage of dead (Trypan blue-positive) cells (TC620 cells; 200 nM, 48 hours (FIG. 6A)) [%] | percentage of dead (Trypan blue-positive) cells (TC620 cells; 400 nM, 48 hours (FIG. 6A)) [%] | percentage of cells Trypan blue positive (MSN cells; [2]) [%] | percentage of Trypan blue positive cells (TC620 cells; 600 nM alone (FIG. 6B)) [%] | percentage of Trypan blue positive cells (TC620 cells; [3]) [%] | cell death, Trypan blue positive cells (MSN cells; MSN cells (FIG. 4A)) | percentage of cells Trypan blue positive (MSN cells; 200 nM, 48 hours (FIG. 4A)) [%] | percentage of dead (Trypan blue-positive) cells (TC620 cells; 100 nM, 48 hours (FIG. 6A)) [%] | cell death, Trypan blue positive cells (TC620 cells; 48 hours (FIG. 6A))
d(GCACCTAGTCTCCCTGCACC) (DNA, all phosphorothioate, methylation of C not given here) [Oligo 1132, mismatched phosphorothioate control oligonucleotide, not complementary to survivin mRNA, reference compound] | 23 | 7-11% | 22 | no significant increase in caspase-3 activity | 30,961 ± 1681 Relative units/mg protein | 95 | 4-8% | robust AIF staining in the cytosol | 8 | 7.5 | – | – | – | – | – | – | –
d(GCTTCCCAGTCACATCCTGT) (antisense dG*dC*dT*dT*dC*dC*dC*dA*dG*dT*dC*dA*dC*dA*dT*dC*dC*dT*dG*dT) [Oligo 906, 20-mer phosphorothioate survivin antisense oligonucleotide, complementary to survivin mRNA 11897-11916] | – | 81% | – | – | – | – | – | nuclear translocation of AIF | – | – | 74 | 67 | 15 | – | – | – | –
d(TCTTGGCTCTTTCTCTGTCC) (antisense dT*dC*dT*dT*dG*dG*dC*dT*dC*dT*dT*dT*dC*dT*dC*dT*dG*dT*dC*dC) [Oligo 904, 20-mer phosphorothioate survivin antisense oligonucleotide, complementary to survivin mRNA 5248-5267] | 59 | 73% | 62 | no significant increase in caspase-3 activity; also recorded: did not activate caspase-3 | 33,532 ± 3732 Relative units/mg protein | – | – | nuclear translocation of AIF | 36 | 62 | 73 | 70 | 11 | dose-dependent increase in cell death | 52 | 28 | concentration-dependent increase in Trypan blue-positive (dead) cells; also recorded: dose-dependent increase in cell death
